From patent US4661513A, “3-aminopropoxyphenyl derivatives, their preparation and pharmaceutical compositions containing them” (Louis; William John, priority 1982, dated 1987)

Experiments:
[1] = system: β-adrenoceptor (guinea pig atrium); assay: spontaneously beating guinea pig atrium test: inhibition of the positive chronotropic isoprenaline effect; settings: β-adrenoceptor blocking activity, vs isoprenaline
[2] = system: tracheal preparations (guinea pig trachea); assay: in vitro tracheal preparations of the guinea pig, relaxation under isoproterenol
[3] = at concentrations as high as 1×10^-4 M

SMILES | Guinea pig atrium test Effective dose (molar concentration) [1] | effect in the trachea [2, 3] | effect in the trachea ([2]; at concentrations as high as 2×10^-5 M)
O=C(NCCCNCC(O)COc1ccc(OCCOCC2CC2)cc1)C1CCOCC1 (centres unmarked) [Example 12] | 3000 nM |  | 
O=C(NCCNCC(O)COc1ccc(OCCOCC2CC2)cc1)C1CCCOC1 (centres unmarked) [Example 10] |  | no effect | 
COCCc1ccc(OCC(O)CNCCNC(=O)C2CCCOC2)c(Br)c1 (centres unmarked) [Example 8] | 80 nM |  | 
COCCc1ccc(OCC(O)CNCCNC(=O)C2CCCOC2)cc1 (centres unmarked) [Example 1, 1-[4-(2-Methoxyethyl)phenoxy]-3-[2-(tetrahydropyran-3-ylcarbonylamino)ethylamino]-2-propanol] |  |  | no effect
COCCOc1ccc(OCC(O)CNCCNC(=O)C2CCOCC2)cc1 (centres unmarked) [Example 6] | 400 nM | no effect | 
COCCc1ccc(OCC(O)CNCCNC(=O)C2CCCOC2)c(C#N)c1 (centres unmarked) [Example 9] | 300 nM |  | 
COCCc1ccc(OCC(O)CNCCNC(=O)C2CCOCC2)c(C#N)c1 (centres unmarked) [Example 7] | 80 nM |  | 
O=C(NCCNCC(O)COc1ccc(OCCOCC2CC2)cc1)C1CCOCC1 (centres unmarked) [Example 11] | 200 nM | no effect | 
COCCc1ccc(OCC(O)CNCCNC(=O)C2CCOCC2)cc1 (centres unmarked) [Example 3] | 200 nM |  | 
